Laboratory results published in US7659299B2, “Compounds inhibiting the binding of sap for treating osteoarthritis” (Pentraxin Therapeutics Limited, priority 2003, dated 2010).

Assays:
Set-up in all cases: 5 μl of radiolabelled SAP in TN; from tissue
SAP [1] = target: T1, SAP (Homo sapiens, UniProt P02743); test: Inhibition of binding of 125I radiolabelled SAP to native long chromatin immobilized in microtitre plates; settings: for inhibition at 0.2 µM / inhibition at 20 µM / inhibition at 200 µM / inhibition at 2000 µM / inhibition at 2 µM: read-out: Percent inhibition of binding of radiolabelled SAP to immobilized native long chromatin
T1 sequence (P02743 20-223): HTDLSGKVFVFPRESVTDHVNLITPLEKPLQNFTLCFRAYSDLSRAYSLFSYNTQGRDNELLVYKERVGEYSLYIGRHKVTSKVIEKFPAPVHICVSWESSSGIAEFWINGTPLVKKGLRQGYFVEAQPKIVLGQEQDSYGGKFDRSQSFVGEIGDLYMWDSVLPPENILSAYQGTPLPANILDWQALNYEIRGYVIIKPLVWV

SAP [2] = target: T1, SAP; test: Inhibition of binding of 125I radiolabelled SAP to Neisseria meningitidis immobilized in microtitre plates; settings: for inhibition at 0.2 µM / inhibition at 2 µM / inhibition at 20 µM / inhibition at 200 µM / inhibition at 2000 µM: read-out: Percent inhibition of binding of radiolabelled SAP to immobilized Neisseria meningitidis
Experimental: A suspension of heat killed Neisseria meningitidis at 1×10^8 organisms per ml in PBS was dispensed to polystyrene microtitre plates at 50 μl volumes per well, and left overnight at 4° C. All wells were then washed three times with 200 μl volumes of PBS containing 0.05% v/v Tween 20, prior to equilibration for 2 min with 0.01M Tris buffered 0.14M NaCl/0.002M CaCl2 at pH 8.0 (TC buffer), containing 4% w/v BSA and 0.05%/v Tween 20 (TCBT buffer). The wells were then emptied before adding to each one the following reagents. […] For background, non-specific, non calcium dependent, binding in the presence of EDTA: 5 μl radiolabelled SAP in TN and 45 μl 0.01M Tris buffered 0.14M NaCl at pH 8.0 containing 11.1 mM EDTA, 4.4% w/v BSA and 0.06% w/v Tween 20 (TEBT buffer) to provide final concentrations of EDTA, 10 mM; BSA, 4%; Tween 20, 0.05%. […] All wells were then incubated at room temperature for 2 h before being washed three times with 200 μl volumes of TCBT, allowed to dry for 1 h at room temperature, and bound radiolabelled SAP was then counted.
The capacity of the compounds tested to inhibit binding of SAP to meningococci is expressed as the percentage by which SAP binding was reduced compared to binding in the absence of any inhibitor (Table 1).

SAP [3] = target: T1, SAP; test: Inhibition of binding of 125I radiolabelled SAP to influenza virus immobilized in microtitre plates; settings: for inhibition at 0.2 µM / inhibition at 2 µM / inhibition at 20 µM / inhibition at 200 µM / inhibition at 2000 µM: read-out: Percent inhibition of binding of radiolabelled SAP to immobilized influenza virus
Experimental: A concentrated suspension of purified influenza virus A/Shanghai/24/90 at 10 mg protein per ml in PBS was diluted 1:50 in PBS and then dispensed to polystyrene microtitre plates at 50 μl volumes per well, and left overnight at 4° C. All wells were then emptied before blocking by addition to each well of 200 μl of 2% w/v BSA in PBS and incubation at room temperature for 1 h. All wells were then washed three times with 200 μl volumes of PBS containing 0.05% v/v Tween 20, prior to equilibration for 2 min with 0.01M Tris buffered 0.14M NaCl/0.002M CaCl2 at pH 8.0 (TC buffer), containing 4% w/v BSA and 0.05% v/v Tween 20 (TCBT buffer). The wells were then emptied before adding to each one the following reagents. […] For background, non-specific, non calcium dependent, binding in the presence of EDTA: 5 μl radiolabelled SAP in TN and 45 μl 0.01M Tris buffered 0.14M NaCl at pH 8.0 containing 11.1 mM EDTA, 4.4% w/v BSA and 0.06% w/v Tween 20 (TEBT buffer) to provide final concentrations of EDTA, 10 mM; BSA, 4%; Tween 20, 0.05%. […] All wells were then incubated at room temperature for 2 h before being washed three times with 200 μl volumes of TCBT, allowed to dry for 1 h at room temperature, and bound radiolabelled SAP was then counted. The compounds tested in the experiment shown here were the same as those specified in Example B above.
The capacity of the compounds tested to inhibit binding of SAP to the immobilised influenza virus is expressed as the percentage by which SAP binding was reduced compared to binding in the absence of any inhibitor (Table 3).

| Structure (SMILES) | inhibition at 0.2 µM (SAP [1]; compound 200 nM) [%] | inhibition at 20 µM (SAP [1]; compound 20 μM) [%] | inhibition at 200 µM (SAP [1]; compound 200 μM) [%] | inhibition at 2000 µM (SAP [1]; compound 2 mM) [%] | inhibition at 0.2 µM (SAP [2]; compound 200 nM) [%] | inhibition at 2 µM (SAP [2]; compound 2 μM) [%] | inhibition at 20 µM (SAP [2]; compound 20 μM) [%] | inhibition at 200 µM (SAP [2]; compound 200 μM) [%] | inhibition at 0.2 µM (SAP [3]; compound 200 nM) [%] | inhibition at 2 µM (SAP [3]; compound 2 μM) [%] | inhibition at 20 µM (SAP [3]; compound 20 μM) [%] | inhibition at 200 µM (SAP [3]; compound 200 μM) [%] | inhibition at 2000 µM (SAP [3]; compound 2 mM) [%] | inhibition at 2 µM (SAP [1]; compound 2 μM) [%] | inhibition at 2000 µM (SAP [2]; compound 2 mM) [%] | other results |
| --- | --- | --- | --- | --- | --- | --- | --- | --- | --- | --- | --- | --- | --- | --- | --- | --- |
| COc1cccc(OCC(=O)N2CCC[C@@H]2C(=O)O)c1OCC(=O)N1CCC[C@@H]1C(=O)O [Ro-64-2845, (R)-1-[[2-[2-[(R)-2-carboxy-pyrrolidin-1-yl]-2-oxo-ethoxy]-3-methoxy-phenoxy]-acetyl]-pyrrolidine-2-carboxylic acid] | 11 | 75 | 96 | 100 | 19 | 74 | 92 | 93 | 16 | 52 | 62 | 77 | 89 | – | – | – |
| O=C(O)[C@H]1CCCN1C(=O)Cc1cccc(CC(=O)N2CCC[C@@H]2C(=O)O)c1 [Ro-64-2668, (R)-1-[[3-[2-[(R)-2-Carboxy-pyrrolidin-1-yl]-2-oxo-ethyl]-phenyl]-acetyl]-pyrrolidine-2-carboxylic acid] | 0 | 56 | 94 | 98 | 28 | 64 | 92 | 100 | 25 | 68 | 73 | 77 | 82 | 18 | 100 | – |
| O=C(O)[C@H]1CCCN1C(=O)[C@H]1CC[C@@H](C(=O)N2CCC[C@@H]2C(=O)O)CC1 [Ro-64-2600, (R)-1-[cis-4-[(R)-2-Carboxy-pyrrolidine-1-carbonyl]-cyclohexanecarbonyl]-pyrrolidine-2-carboxylic acid] | 1 | 67 | 94 | 100 | 31 | 73 | 93 | – | 0 | 76 | 83 | 89 | 92 | 35 | – | – |
| Cc1c(OCC(=O)N2CCC[C@@H]2C(=O)O)cccc1OCC(=O)N1CCC[C@@H]1C(=O)O [Ro-64-2848, (R)-1-[[3-[2-[(R)-1-Carboxy-pyrrolidin-1-yl]-2-oxo-ethoxy]-2-methyl-phenoxy]-acetyl]-pyrrolidine-2-carboxylic acid] | – | – | – | – | – | – | – | – | – | – | – | – | – | – | – | Percent inhibition of binding of radiolabelled SAP to immobilized native long chromatin (SAP [1]; compound 200 nM): 0%; Percent inhibition of binding of radiolabelled SAP to immobilized native long chromatin (SAP [1]; compound 2 μM): 22%; Percent inhibition of binding of radiolabelled SAP to immobilized native long chromatin (SAP [1]; compound 20 μM): 65%; Percent inhibition of binding of radiolabelled SAP to immobilized native long chromatin (SAP [1]; compound 200 μM): 95%; Percent inhibition of binding of radiolabelled SAP to immobilized native long chromatin (SAP [1]; compound 2 mM): 98%; Percent inhibition of binding of radiolabelled SAP to immobilized Neisseria meningitidis (SAP [2]; compound 200 nM): 1%; Percent inhibition of binding of radiolabelled SAP to immobilized Neisseria meningitidis (SAP [2]; compound 2 μM): 64%; Percent inhibition of binding of radiolabelled SAP to immobilized Neisseria meningitidis (SAP [2]; compound 20 μM): 93%; Percent inhibition of binding of radiolabelled SAP to immobilized Neisseria meningitidis (SAP [2]; compound 200 μM): 100%; Percent inhibition of binding of radiolabelled SAP to immobilized Neisseria meningitidis (SAP [2]; compound 2 mM): 100%; Percent inhibition of binding of radiolabelled SAP to immobilized influenza virus (SAP [3]; compound 200 nM): 24%; Percent inhibition of binding of radiolabelled SAP to immobilized influenza virus (SAP [3]; compound 2 μM): 65%; Percent inhibition of binding of radiolabelled SAP to immobilized influenza virus (SAP [3]; compound 20 μM): 81%; Percent inhibition of binding of radiolabelled SAP to immobilized influenza virus (SAP [3]; compound 200 μM): 81%; Percent inhibition of binding of radiolabelled SAP to immobilized influenza virus (SAP [3]; compound 2 mM): 85% |
| O=C(O)[C@H]1CCCN1C(=O)Cc1ccc(CC(=O)N2CCC[C@@H]2C(=O)O)c2ccccc12 [Ro-64-5607, (R)-1-[[4-[2-[(R)-2-Carboxy-pyrrolidin-1-yl]-2-oxo-ethyl]-naphthalen-1-yl]-acetyl]-pyrrolidine-2-carboxylic acid] | 15 | 77 | 96 | 100 | 13 | 69 | 89 | – | 4 | 64 | 95 | 94 | 98 | 35 | – | – |
| O=C(O)[C@H]1CCCN1C(=O)Cc1cc(O)c(CC(=O)N2CCC[C@@H]2C(=O)O)cc1O [Ro-64-4383, (R)-1-[[2,5-Dihydroxy-4-[2-[(R)-2-carboxy-pyrrolidin-1-yl]-2-oxo-ethyl]-phenyl]-acetyl]-pyrrolidine-2-carboxylic acid] | 0 | 78 | 88 | 97 | 1 | 76 | 95 | 100 | 24 | 57 | 80 | 89 | 89 | 45 | 100 | – |
| O=C(O)[C@H]1CCCN1C(=O)Cc1ccc(CC(=O)N2CCC[C@@H]2C(=O)O)cc1 [Ro-63-7777, (R)-1-[[4-[2-[(R)-2-Carboxy-pyrrolidin-1-yl]-2-oxo-ethyl]-phenyl]-acetyl]-pyrrolidine-2-carboxylic acid] | 4 | 39 | 66 | 92 | 7 | 64 | 73 | 100 | 37 | 65 | 85 | 89 | 89 | 19 | 100 | – |
| O=C(O)[C@H]1CCCN1C(=O)COc1ccccc1OCC(=O)N1CCC[C@@H]1C(=O)O [Ro-63-8593, (R)-1-[[2-[2-[(R)-2-Carboxy-pyrrolidin-1-yl]-2-oxo-ethoxy]-phenoxyl]-acetyl]-pyrrolidine-2-carboxylic acid] | 7 | 77 | 89 | 96 | 18 | – | 87 | 100 | 44 | 68 | 88 | 93 | 94 | 34 | 100 | – |
